± gives the expanded uncertainty stated by the source.
Legend:
[1] = Crystal; DTA
[2] = Molar enthalpy of transition or fusion; conditions: Crystal; DSC
[3] = molar heat capacity at constant pressure; conditions: 298.15 K; 101.33 kPa; Liquid; Small sample (50 mg) DSC

Row | SMILES | Normal melting temperature [1] [°C] | Molar enthalpy of transition or fusion [2] [kcal/mol] | molar heat capacity at constant pressure [3] [J/K/mol]
1 | NS(=O)(=O)c1cccc([N+](=O)[O-])c1 [3-nitrobenzenesulfonamide] | 164.00 ± 0.39 | 7.52 ± 0.177 | 199.96 ± 8.5
2 | NS(=O)(=O)c1ccccc1[N+](=O)[O-] [2-nitrobenzenesulfonamide] | 189.92 ± 0.39 | 6.77 ± 0.155 | 179.54 ± 8.5
3 | NS(=O)(=O)c1ccc([N+](=O)[O-])cc1 [4-nitrobenzenesulfonamide] | 180.46 ± 0.39 | 7.12 ± 0.155 | 219.98 ± 13

Source: the NIST ThermoML archive (doi:10.1016/j.jct.2009.10.003)
